# Test results: article PMC4552778 (European Journal of Drug Metabolism and Pharmacokinetics, 2014)
# Numbered stars: 1 amine (or outer) side, 2 acyl side, 3 side chain; on linkers, the order of the positions; unused ones are H or OH. Bridge positions count the residues as written; N and C are the ends. Square brackets hold non-standard residues; d marks the D form. Peptide text beside a SMILES is read from it. * marks the point of attachment. hTyr(3S-OH,4S-OH,3'-OSO3H) = N[C@H](C(=O)O)[C@H](O)[C@@H](O)c1ccc(O)c(OS(=O)(=O)O)c1; Orn(4R-OH,5R-OH) = O=C([C@H](C[C@@H](O)[C@@H](O)N[*:3])N[*:1])[*:2]; Pro(3S-OH,4S-Me) = C[C@H]1CN[C@H](C(=O)O)[C@H]1O; X1 = CCCCCOc1ccc(-c2cc(-c3ccc(C(=O)*)cc3)no2)cc1; Gln(3R-OH) = NC(=O)C[C@@H](O)[C@H](N)C(=O)O; Hyp = O=C(O)[C@@H]1C[C@@H](O)CN1
# How the values were obtained:
# plasma protein = assay: Micafungin plasma protein binding by ultrafiltration; format: in vitro ADME, human; settings: 37 °C, range
# [1] = tested on: plasma protein, primarily albumin; settings: primarily to albumin; ref Astellas Pharma; Hebert et al. [2005b]; cited from earlier work
# Safety assessments = format: in vivo, human; settings: six AEs reported by four subjects of 19; single 100 mg IV dose
# [2] = ref Dowell et al. [2007]; cited from earlier work
Compound,"Protein binding (plasma protein; healthy subjects, measurable in three subjects)","Protein binding (plasma protein; subjects with severe hepatic dysfunction, measurable in five subjects)",Protein bound in plasma [1] [%],Adverse events: seriousness and relation to drug (Safety assessments),Lower exposure in subjects with severe hepatic dysfunction compared with healthy controls [2] [%]
"CCCCCOc1ccc(-c2cc(-c3ccc(C(=O)N[C@H]4C[C@@H](O)[C@@H](O)NC(=O)[C@@H]5[C@@H](O)[C@@H](C)CN5C(=O)[C@H]([C@H](O)CC(N)=O)NC(=O)[C@H]([C@H](O)[C@@H](O)c5ccc(O)c(OS(=O)(=O)O)c5)NC(=O)[C@@H]5C[C@@H](O)CN5C(=O)[C@H]([C@@H](C)O)NC4=O)cc3)no2)cc1 [micafungin, Micafungin] (X1-[Orn(4R-OH,5R-OH)]T[Hyp][hTyr(3S-OH,4S-OH,3'-OSO3H)][Gln(3R-OH)][Pro(3S-OH,4S-Me)]; lactam 1-C)",92.4–99.0%,86.1–97.6%,> 99,None of these AEs was considered to be serious or to be related to micafungin,
anidulafungin,,,,,33
